In article PMC4170737 (Bioorganic & medicinal chemistry letters, 2014):

How the values were obtained:
[1] = Hepatic microsome stability, human; conditions: for Hepatic Microsome Stability: human (first or only value of cell)
[2] = Hepatic microsome stability, mouse; conditions: for Hepatic Microsome Stability: mouse (first or only value of cell)
[3] = Plasma protein binding, mouse
[4] = Plasma protein binding, human
human PMM2 [5] = biological target: T1, human PMM2 (Homo sapiens, UniProt O15305)
T1 sequence (O15305 1-246): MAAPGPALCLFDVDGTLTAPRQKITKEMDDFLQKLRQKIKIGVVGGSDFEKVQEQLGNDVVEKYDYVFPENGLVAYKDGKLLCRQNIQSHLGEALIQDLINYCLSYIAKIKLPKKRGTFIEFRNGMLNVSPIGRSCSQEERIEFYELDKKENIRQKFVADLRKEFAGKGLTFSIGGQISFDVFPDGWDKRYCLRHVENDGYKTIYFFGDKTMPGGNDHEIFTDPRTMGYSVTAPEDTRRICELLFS

[6] = biological target: T2, human PMI (phosphomannose isomerase) (Homo sapiens, UniProt P34949)
T2 sequence (P34949 1-423): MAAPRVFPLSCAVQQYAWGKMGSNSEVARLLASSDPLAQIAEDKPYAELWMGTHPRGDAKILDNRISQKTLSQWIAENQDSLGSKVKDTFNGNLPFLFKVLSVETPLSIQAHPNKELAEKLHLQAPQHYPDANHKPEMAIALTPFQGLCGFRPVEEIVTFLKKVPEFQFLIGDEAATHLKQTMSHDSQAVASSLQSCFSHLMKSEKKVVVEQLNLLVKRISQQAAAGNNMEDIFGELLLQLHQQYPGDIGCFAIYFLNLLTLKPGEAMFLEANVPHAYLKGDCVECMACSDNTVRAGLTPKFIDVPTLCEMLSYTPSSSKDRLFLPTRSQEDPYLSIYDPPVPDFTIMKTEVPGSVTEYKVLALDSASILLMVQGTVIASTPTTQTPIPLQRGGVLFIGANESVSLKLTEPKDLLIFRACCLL

TNAP = biological target: T3, TNAP (Homo sapiens, UniProt P05186)
T3 sequence (P05186 18-502 limits assumed): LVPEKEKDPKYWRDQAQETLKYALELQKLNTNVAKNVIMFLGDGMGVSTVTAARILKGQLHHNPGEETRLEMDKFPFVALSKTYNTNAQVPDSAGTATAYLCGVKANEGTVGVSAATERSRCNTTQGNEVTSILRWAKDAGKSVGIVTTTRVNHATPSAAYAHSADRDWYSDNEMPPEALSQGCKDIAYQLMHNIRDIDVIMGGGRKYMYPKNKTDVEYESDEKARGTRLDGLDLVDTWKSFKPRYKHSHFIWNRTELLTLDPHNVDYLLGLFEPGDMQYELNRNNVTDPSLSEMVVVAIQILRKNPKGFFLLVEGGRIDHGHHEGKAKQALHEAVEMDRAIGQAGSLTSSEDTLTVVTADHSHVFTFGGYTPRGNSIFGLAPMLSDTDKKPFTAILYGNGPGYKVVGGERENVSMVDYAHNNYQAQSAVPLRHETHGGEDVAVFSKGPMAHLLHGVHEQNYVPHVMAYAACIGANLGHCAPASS

[7] = system: mevalonate pathway in streptococcus pneumonia; conditions: ref PubChem AID1028; cited from earlier work
human PMM2 [8] = biological target: T1, human PMM2; experiment: biochemical
[9] = 1× PBS, pH 7.4 alone, mouse column (second value of cell)
[10] = mouse plasma: 1× PBS, pH 7.4, 1:1 (first value of cell)
[11] = 1× PBS, pH 7.4 alone, human column (second value of cell)
[12] = human plasma: 1× PBS, pH 7.4, 1:1 (first value of cell)

| Structure (SMILES) | Hepatic Microsome Stability [1] | Hepatic Microsome Stability (NADPH minus) ([1]; human, NADPH minus (second value of cell)) | Plasma Stability (Plasma stability, mouse; [9]) | Plasma Stability (Plasma stability, mouse; [10]) | Hepatic Microsome Stability [2] | Hepatic Microsome Stability (NADPH minus) ([2]; mouse, NADPH minus (second value of cell)) | Plasma Stability (Plasma stability, human; [11]) | Plasma Stability (Plasma stability, human; [12]) | Papp (PAMPA permeability; PAMPA Permeability, donor pH 5.0, acceptor pH 7.4) | Papp (PAMPA permeability; PAMPA Permeability, donor pH 6.2, acceptor pH 7.4) | Papp (PAMPA permeability; pH 7.4, PAMPA Permeability, donor pH 7.4, acceptor pH 7.4) | Plasma Protein Binding ([3]; 1 μM) | Plasma Protein Binding ([3]; 10 μM) | Plasma Protein Binding ([4]; 1 μM) | Plasma Protein Binding ([4]; 10 μM) | Activity at PMM2 (in words) (human PMM2 [5]) | Activity at PMI (in words) [6] | Inhibitory activity against TNAP (in words) (TNAP) | Activity in screen for inhibitors of the mevalonate pathway (in words) [7] | IC50 (human PMM2 [8]) |
| --- | --- | --- | --- | --- | --- | --- | --- | --- | --- | --- | --- | --- | --- | --- | --- | --- | --- | --- | --- | --- |
| COC(=O)c1cccc(-n2sc3ccccc3c2=O)c1 [Compound 2o] | 72.4 % Remaining at 1hr | 31.5 % Remaining at 1hr | 55.2 % Remaining at 3hrs | 59.6 % Remaining at 3hrs | 45.9 % Remaining at 1hr | 44.6 % Remaining at 1hr | 49.3 % Remaining at 3hrs | 15.4 % Remaining at 3hrs | 1290 ×10⁻⁶ cm/s | 1230 ×10⁻⁶ cm/s | 1300 ×10⁻⁶ cm/s | 48.0 % Bound | 37.6 % Bound | 41.2 % Bound | 57.3 % Bound |  |  |  |  |  |
| CN(C)S(=O)(=O)c1cccc(-n2sc3ccccc3c2=O)c1 [Compound 2s] | 72.4 % Remaining at 1hr |  | 40.0 % Remaining at 3hrs | 65.3 % Remaining at 3hrs | 100 % Remaining at 1hr |  | 32.3 % Remaining at 3hrs | 11.4 % Remaining at 3hrs |  |  |  | 35.6 % Bound | 34.1 % Bound |  | n.d. / 56.5 % Bound |  |  |  |  |  |
| O=c1c2ccccc2sn1-c1ccc(F)c(Cl)c1 [Compound 2m] |  |  |  |  |  |  |  |  |  |  |  |  |  |  |  | inactive | inactive |  |  |  |
| CCOC(=O)c1ccc(-n2sc3ccccc3c2=O)cc1 [Compound 2p] |  |  |  |  |  |  |  |  |  |  |  |  |  |  |  | essentially devoid of activity | essentially devoid of activity |  |  |  |
| O=C(O)c1cccc(-n2sc3ccccc3c2=O)c1 [Compound 2n] | 100 % Remaining at 1hr |  | 71.2 % Remaining at 3hrs | 100 % Remaining at 3hrs | 100 % Remaining at 1hr |  | 55.5 % Remaining at 3hrs | 50.2 % Remaining at 3hrs |  |  |  | 18.8 % Bound | 30.1 % Bound |  | n.d. / 59.4 % Bound | no activity |  |  |  |  |
| CCN(CC)S(=O)(=O)c1cccc(-n2sc3ccccc3c2=O)c1 [Compound 2t] |  |  |  |  |  |  |  |  |  |  |  |  |  |  |  | devoid of activity | devoid of activity |  |  |  |
| CN(C)C(=O)c1cccc(-n2sc3ccccc3c2=O)c1 [Compound 2q] | 45.7 % Remaining at 1hr |  | 56.9 % Remaining at 3hrs | 76.2 % Remaining at 3hrs | 56.6 % Remaining at 1hr |  | 60.0 % Remaining at 3hrs | 18.9 % Remaining at 3hrs |  |  |  | 48.0 % Bound | 46.7 % Bound | 41.3 % Bound |  | no activity | no activity | devoid of any significant inhibitory activity | weak activity | > 50 µM |
